Measurements reported in paper PMC9179981 (International Journal of Molecular Sciences, 2022).
Like-named read-outs stand apart in the source and are kept apart here.

How the values were obtained:
[1] = target: T1, AChE (EC 3.1.1.7, Electrophorus electricus) (Electrophorus electricus, UniProt O42275); assay: biochemical
T1 construct: purchased Sigma Aldrich (Steinheim, Germany)
Experimental: (§1) Ellman’s assay was used to assess the inhibitory activity of the newly synthesized compounds towards AChE and BuChE. […] An evaluation of the inhibitory potency towards AChE (EC 3.1.1.7, Electrophorus electricus) and BuChE (EC 3.1.1.8, equine serum) was performed using a modified spectrophotometric Ellman’s method. All necessary reagents for the study were purchased from Sigma Aldrich (Steinheim, Germany). […] The phosphate buffer (pH 8.0) was used as a solvent for reagents. The assay protocol included 14 µL of the tested compound in the nine different concentrations, and 40 µL of substrate acetylthiocholine (ATI) in concentration 1mM or 2mM for AChE and BuChE, respectively. Next, 76 µL of 0.4 mg/mL 5,5′-dithio-bis(2-nitrobenzoic) acid (DTNB) was added to the mixture. In the end, to start the reaction 10 µL of AChE (2U/mL) or BuChE (4U/mL) was added and the solution was mixed and incubated for 10 min. at 37 °C. As a control, instead of the tested compound, we used PBS. […] The experiments were performed independently and in triplicate. Data were expressed as mean ± SD.

[2] = target: T2, BuChE (EC 3.1.1.8, equine serum) (Equus caballus, UniProt P81908); assay: biochemical; assay type: biochemical
T2 construct: purchased Sigma Aldrich (Steinheim, Germany); host or cells: equine serum
Experimental: as §1

in vitro = conditions: human
BuChE = target: T3, BuChE (Equus caballus, UniProt P81908); assay: Kinetic characterization of BuChE inhibition (Lineweaver-Burk); assay type: biochemical, equine; conditions: Lineweaver-Burk plot; inhibitor 0, 150, 200, 250 nM
T3 construct: purchased Sigma Aldrich (Steinheim, Germany); host or cells: equine serum
Experimental: Lineweaver–Burk plots were prepared to reveal the type of inhibition. The experiments were performed in triplicate.
The protocol of the kinetic study was similar to the previous inhibition study. A phosphate buffer (pH 8.0) was used as the solvent for all reagents. The tested medium consisted of 76 µL DTNB (0.4 mg/mL), 40 µL substrate (ATI) at chosen concentrations (35–350 µM), 10 µL of AChE (2 U/mL) or BuChE (4 U/mL), and 14 µL of the inhibitor. […] For the BuChE kinetic analysis, we used four concentrations of the 3b derivative (0, 150, 200, 250 nM). Changes in absorbance were measured at 412 nm. All experiments were conducted independently and in triplicate. To estimate the type of inhibition, reciprocal plots of 1/V versus 1/[S] were created.

[3] = ORAC-FL antioxidant activity assay; conditions: Trolox equivalents, mean ± SD; compounds 1–13 µM, tacrine 1–10 µM; pH 7.4
AChE = target: T4, AChE (Electrophorus electricus, UniProt O42275); assay: Kinetic characterization of AChE inhibition (Lineweaver-Burk); assay type: biochemical; conditions: Lineweaver-Burk plot; inhibitor 0, 200, 400, 800 nM
T4 construct: purchased Sigma Aldrich (Steinheim, Germany)
Experimental: […]. Lineweaver–Burk plots were prepared to reveal the type of inhibition. The experiments were performed in triplicate.
. The protocol of the kinetic study was similar to the previous inhibition study. A phosphate buffer (pH 8.0) was used as the solvent for all reagents. […]. For the BuChE kinetic analysis, we used four concentrations of the 3b derivative (0, 150, 200, 250 nM). Changes in absorbance were measured at 412 nm. All experiments were conducted independently and in triplicate. […]

[4] = Ellman's method, pH 8.0, 37 °C, mean ± SD of three independent experiments, read-out: AChE IC50 ± SD
[5] = Ellman's method, pH 8.0, 37 °C, mean ± SD of three independent experiments

T2 sequence (P81908 whole entry): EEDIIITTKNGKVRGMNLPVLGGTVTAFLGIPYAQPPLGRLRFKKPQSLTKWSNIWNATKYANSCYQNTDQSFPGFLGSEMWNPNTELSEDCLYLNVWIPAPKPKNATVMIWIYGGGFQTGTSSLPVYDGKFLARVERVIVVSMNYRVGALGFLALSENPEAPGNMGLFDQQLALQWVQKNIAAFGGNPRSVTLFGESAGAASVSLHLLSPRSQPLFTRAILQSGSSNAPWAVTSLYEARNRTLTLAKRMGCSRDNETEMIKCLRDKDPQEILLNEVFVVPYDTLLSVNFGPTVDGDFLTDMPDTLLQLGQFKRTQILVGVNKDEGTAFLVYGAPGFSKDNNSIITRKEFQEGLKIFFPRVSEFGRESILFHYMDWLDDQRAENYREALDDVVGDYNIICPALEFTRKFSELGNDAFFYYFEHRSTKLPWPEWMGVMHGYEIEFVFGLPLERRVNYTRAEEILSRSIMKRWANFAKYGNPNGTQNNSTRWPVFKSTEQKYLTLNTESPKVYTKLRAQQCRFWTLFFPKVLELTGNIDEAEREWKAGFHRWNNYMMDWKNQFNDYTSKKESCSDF
T1 sequence (O42275 24-633): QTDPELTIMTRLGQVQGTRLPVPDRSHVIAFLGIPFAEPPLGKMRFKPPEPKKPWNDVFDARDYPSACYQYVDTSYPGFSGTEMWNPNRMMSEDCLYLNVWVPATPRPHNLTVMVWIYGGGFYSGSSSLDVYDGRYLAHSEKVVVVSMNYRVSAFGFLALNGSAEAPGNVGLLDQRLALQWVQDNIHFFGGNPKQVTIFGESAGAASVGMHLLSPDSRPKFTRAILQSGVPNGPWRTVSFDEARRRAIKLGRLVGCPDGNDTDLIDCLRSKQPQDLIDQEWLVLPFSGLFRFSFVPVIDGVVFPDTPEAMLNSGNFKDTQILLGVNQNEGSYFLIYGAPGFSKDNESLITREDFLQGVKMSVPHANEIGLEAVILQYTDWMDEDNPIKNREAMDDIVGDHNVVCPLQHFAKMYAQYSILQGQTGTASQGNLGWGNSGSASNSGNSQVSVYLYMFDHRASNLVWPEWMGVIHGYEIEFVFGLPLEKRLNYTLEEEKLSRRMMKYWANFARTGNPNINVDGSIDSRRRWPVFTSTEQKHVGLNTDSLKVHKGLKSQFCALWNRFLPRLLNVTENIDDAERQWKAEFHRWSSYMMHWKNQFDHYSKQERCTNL
T3 sequence (P81908 whole entry): as the sequence (P81908 whole entry) above
T4 sequence (O42275 24-633): as the sequence (O42275 24-633) above

Row | Structure (SMILES) | IC50 [1, 4] [nM] | Selectivity for AChE ([1]; IC50(BuChE)/IC50(AChE)) | IC50 [2, 5] [nM] | Selectivity for BuChE ([2]; IC50(AChE)/IC50(BuChE)) | ORAC (TE) [3] [TE] | further results
1 | c1ccc2c(NCCCCCCCNc3c4c(nc5ccccc35)CCCC4)c3c(nc2c1)CCCC3 [Bistacrine, bistacrine, reference compound] |  |  |  |  |  | Selectivity for AChE [1]: 0.56; IC50 ([1]; pH 8, read-out: AChE IC50 ± SD): 405 ± 28.6 nM; Selectivity for BuChE [2]: 1.79; IC50 ([2]; pH 8, read-out: BuChE IC50 ± SD): 226 ± 30.4 nM
2 | Cl.O=C(NCCNc1c2c(nc3ccccc13)CCC2)c1c2ccccc2nc2ccccc12 [Compound 3a, N-[2-({1H,2H,3H-cyclopenta[b]quinolin-9-yl}amino)ethyl]acridine-9-carboxamide hydrochloride] | 8620 ± 606 | 0.063 | 540 ± 66.9 | 15.96 |  | 
3 | Cl.O=C(NCCCNc1c2c(nc3ccccc13)CCC2)c1c2ccccc2nc2ccccc12 [Compound 3b, N-[3-({1H,2H,3H-cyclopenta[b]quinolin-9-yl}amino)propyl]acridine-9-carboxamide hydrochloride] |  |  | 104 ± 7.63 |  | 0.4614 ± 0.056 | IC50 at 24 h (in vitro): 32000 ± 2050 nM; IC50 [1]: 272 ± 35.1 nM; Type of BuChE inhibition (BuChE): mixed type of inhibition
4 | Cl.O=C(NCCCCNc1c2c(nc3ccccc13)CCC2)c1c2ccccc2nc2ccccc12 [Compound 3c, N-[4-({1H,2H,3H-cyclopenta[b]quinolin-9-yl}amino)butyl]acridine-9-carboxamide hydrochloride] | 273 ± 22.1 | 0.73 | 200 ± 18.1 | 1.36 |  | 
5 | Cl.O=C(NCCCCCNc1c2c(nc3ccccc13)CCC2)c1c2ccccc2nc2ccccc12 [Compound 3d, N-[5-({1H,2H,3H-cyclopenta[b]quinolin-9-yl}amino)pentyl]acridine-9-carboxamide hydrochloride] |  | 0.043 | 173 ± 18.9 | 23.39 |  | 
6 | Cl.O=C(NCCCCCCNc1c2c(nc3ccccc13)CCC2)c1c2ccccc2nc2ccccc12 [Compound 3e, N-[6-({1H,2H,3H-cyclopenta[b]quinolin-9-yl}amino)hexyl]acridine-9-carboxamide hydrochloride] | 395 ± 36.1 | 0.49 |  | 2.02 |  | 
7 | Cl.O=C(NCCCCCCCNc1c2c(nc3ccccc13)CCC2)c1c2ccccc2nc2ccccc12 [Compound 3f, N-[7-({1H,2H,3H-cyclopenta[b]quinolin-9-yl}amino)heptyl]acridine-9-carboxamide hydrochloride] | 113 ± 7.14 | 1.79 | 204 ± 16 | 0.56 | 0.3254 ± 0.014 | IC50 at 24 h (in vitro; human hepatic stellate cells (HSCs)): 49800 ± 4360 nM; Type of AChE inhibition (AChE): mixed type of inhibition
8 | Cl.O=C(NCCCCCCCCNc1c2c(nc3ccccc13)CCC2)c1c2ccccc2nc2ccccc12 [Compound 3g, N-[8-({1H,2H,3H-cyclopenta[b]quinolin-9-yl}amino)octyl]acridine-9-carboxamide hydrochloride] | 701 ± 67.1 | 0.25 | 178 ± 17 | 3.95 |  | 
9 | Cl.O=C(NCCCCCCCCCNc1c2c(nc3ccccc13)CCC2)c1c2ccccc2nc2ccccc12 [Compound 3h, N-[9-({1H,2H,3H-cyclopenta[b]quinolin-9-yl}amino)nonyl]acridine-9-carboxamide hydrochloride] | 669 ± 83.4 | 0.34 |  | 2.95 |  | 
10 | Nc1c2c(nc3ccccc13)CCCC2 [Tacrine, tacrine, reference compound] |  |  |  |  | 0.0132 ± 0.009 | 
